Test results published in patent US20240226234A1, “WNT5A PEPTIDES FOR THE TREATMENT OF ACUTE M[…]” (W[…], priority 2021, published 2024).
No end group written: not given here. *: point of attachment. For = O=C*

How the values were obtained:
Assay type in all cases: cell-based, human
[1] = test system: U937 cells; experiment: Cell cycle assay, U937 cells; conditions: 72 h
Protocol: (§1) A panel of human myeloid leukemia cell lines (HL60, K562, KG1a, THP1 and U937) and HS-5 mesenchymal stromal cells lineage were cultured in Roswell Park Memorial Institute medium-1640 (RPMI; Sigma) containing 10% Fetal Bovine Serum (Gibco), glutamine (2 mM; Sigma), penicillin (100 μg/mL; Sigma), streptomycin (100 μg/mL; Sigma), and amphotericin B (0.25 μg/mL; Gibco). The cells were maintained in a humidified atmosphere at 37° C. and 5% CO2 and the experiments were performed when they reached exponential growth. For the assays, cells were seeded on a 24-well plate and treated or not with Foxy-5 for 72 hours.
Cells treated with Foxy or with vehicle were collected and fixed, at least, 24 hours in 70% ethanol. DNA was stained with a buffer containing iodide propidium (20 μg/mL; Sigma) and RNase A (10 μg/mL; Sigma). Cell fluorescence was detected with a FACSCalibur flow cytometer (BD). The proportions of cells in the cell cycle phases were analyzed by Modifit (Verify Software House Inc), according to DNA distributions.
As we observed a reduction in the leukemic proliferation after Foxy-5 treatment, we also analyzed the cell cycle phases. Leukemia cell lines were treated for 72 hours with Foxy-5, at doses of 50 μM and 100 μM, or vehicle, stained with the Piper buffer containing RNAse and iodeto propidium and then analyzed by flow cytometry.

[2] = test system: PI3K and MAPK pathways; experiment: Western blot of PI3K and MAPK pathway proteins, U937 cells; conditions: U937, Foxy-5 50 μM or 100 μM, 72 h
Protocol: Equal amounts of protein were resolved by sodium dodecyl sulphate-polyacrylamide gel electrophoresis and transferred onto nitrocellulose membranes (Millipore). Detection was carried out with the chemiluminescent substrate using an ECL Plus (GE-Healthcare). Monoclonal antibodies against P70S6K (sc-8418) and polyclonal antibodies against Actin (sc-1616), AKT1/2/3 (sc-8312), BAX (sc-493), BCL-XL (sc-8392), GAPDH (sc-32,233), p-AKT1/2/3 (sc-33,437) and p-P70S6K (sc-7984) were purchased from Santa Cruz Biotechnology. ERK1/2 ([pT185/Y187]; 44-680G) and ERK1/2 (44-654G) from Invitrogen. Quantitative blots were carried out using the UN-SCAN-IT densitometer software.
Based on the above results, the activity of proteins of PI3K and MAPK pathways were then investigated in a western blot. Briefly, U937 and K562 cells were seeded and treated with Foxy-5 (50 μM or 100 μM) or vehicle for 72 hours. Then, equal amounts of protein were used for total extracts followed by electrophoresis on 12% SDS polyacrylamide gels under reducing conditions, transferred to nitrocellulose membranes, blocked with 10% skimmed milk in TBS-0.1% Tween for 1 hour, stained with appropriate primary and secondary antibodies. The membranes were visualized with chemiluminescence using an ECL Plus (GE-Healthcare). Quantitative analyses of the optical intensities of the protein bands were determined with Un-Scan-It Gel 6.1 (Silk Scientific Inc.).

[3] = test system: HL60 cells; experiment: Autophagy assay (acridine orange), HL60 cells; conditions: HL60, 2D culture, 72 h
Protocol: as §1
(§2) Cells treated with Foxy or with vehicle were collected and acids vesicles were measured by flow cytometry following staining with Acridine Orange (0.01 mg/mL; Sigma). Acquisition of cells was performed on a FACScalibur flow cytometer (BD) and analysis was carried out using the FlowJo software 4.
(§3) As autophagy is required for sustaining leukemia cell growth by induction of ROS production, we measured the levels of acidic granule formation by flow cytometry after Foxy-5 or vehicle treatment. […]

[4] = test system: THP1 cells; experiment: Transwell chemotaxis assay toward CXCL12, THP1 cells; conditions: THP1, Foxy-5 100 μM 72 h pretreatment, CXCL12 100 ng/mL, 24 h
Protocol: Leukemic cell lines, pretreated or not with Foxy-5 (72 hours of stimulation) were tested for chemotaxis in Transwell-based assays for Chemotaxis (6.5 mm diameter, 8 μm pore size; Corning). Polycarbonate membranes were incubated with poly-L-lysine (1 mg/mL) for 1 hour at 37° C. followed by saline buffer washing. Briefly, cells were collected, washed with media containing bovine serum albumin (0.1% BSA; Sigma), and then seeded at a density of 5×10^5 cells into the upper chamber of the transwell. The lower chamber was filled with media containing 0.5% BSA (negative control), media containing 10% FBS (positive control) and media 5 containing 0.5% BSA with CXCL12 (100 ng/ml; Peprotech) (Melo et al., 2014). Following 6 h or 24 h of incubation at 37° C., cells that migrated into the lower chamber were collected, centrifuged, resuspended in saline buffer and counted. The number of migrated cells was expressed as a percentage of the input, i.e., the cells number applied directly to the lower compartment in parallel wells. The migration of cells was normalized to 100%+/−standard deviation (SD) of triplicates (Favaro et al., 2013).
We investigated whether restoring of WNT5A could enable the modulation CXCL12-induced chemotaxis of leukemia cells. […]

[5] = test system: K562 cells; experiment: Autophagy assay (acridine orange), K562 cells; conditions: K562, 2D culture, 72 h
Protocol: as §1, §2, §3

**Q.** How did the “cells in G0/G1 cell cycle phase (average)” value (“cells … (average)” for short) ([1]; U937, co-cultured with HS5 stromal cells, Foxy-5 50 μM) turn out when “Foxy-5: Formylated hexapeptide fragment of WNT5A: MDGCEL (SEQ. ID. NO. 3) with methionine in position 1 as N-formyl methionine; WNT5A-mimicking compound (For-MDGCEL; listed as Homo sapiens)” was run?
**A.** The value was 77.37%.

**Q.** What about the “cells … (average)” value ([1]; U937, co-cultured with HS5 stromal cells, Foxy-5 100 μM) of the same substance?
**A.** The value was 91.52%.

**Q.** And the “cells … (average)” value ([1]; U937, monoculture, Foxy-5 50 μM)?
**A.** The value was 55.07%.

**Q.** And the “cells … (average)” value ([1]; U937, monoculture, Foxy-5 100 μM)?
**A.** Its value is 56.64%.

**Q.** And the “phosphorylation level of AKT compared to vehicle-treated cells” value [2]?
**A.** The value was “lower phosphorylation levels”.

**Q.** What about the “phosphorylation level of ERK compared to vehicle-treated cells” value [2] of the same substance?
**A.** Its value is “lower phosphorylation levels”.

**Q.** And the “protein level of cyclin D1 compared to vehicle-treated cells” value [2]?
**A.** The value was “reduced protein level”.

**Q.** And the “autophagy (acidic granule formation, acridine orange, average)” value (“autophagy” for short) ([3]; Foxy-5 50 μM)?
**A.** Its value is 10.04 (range 7.20-11.93) MFI.

**Q.** And the “autophagy” value ([3]; Foxy-5 100 μM)?
**A.** Its value is 6.60 (range 5.42-6.69) MFI.

**Q.** What about the “CXCL12-induced chemotaxis (migrated cells as percentage of the input, average)” value [4] of the same substance?
**A.** The value was 11.17%.

**Q.** What about the “autophagy” value ([5]; Foxy-5 50 μM) of the same substance?
**A.** The value was 21.32 (range 20.46-22.28) MFI.

**Q.** What about the “autophagy” value ([5]; Foxy-5 100 μM) of the same substance?
**A.** Its value is 19.80 (range 19.70-20.40) MFI.
